Paper doi:10.1101/2021.04.08.439011v1 (biorxiv, 2021)

What was measured:
[1] = molecular target: JAK1(JH2domain-pseudokinase) (Homo sapiens, UniProt P23458); details: 0.1 µM; binder
PFCDPK1 (P. falciparum) = PFCDPK1 (P. falciparum) (Plasmodium falciparum, UniProt P62344); details: 1 µM; binder
PFPK5(P. falciparum) = PFPK5(P. falciparum) (Plasmodium falciparum, UniProt P61075); details: 0.1 µM; binder
CDK4-cyclinD1 = CDK4-cyclinD1 (Homo sapiens, UniProt P11802); details: 0.1 µM; binder
DYRK1B = DYRK1B (Homo sapiens, UniProt Q9Y463); assay: biochemical; details: read-out: Percent Control
STK33 = STK33 (Homo sapiens, UniProt Q9BYT3); assay: biochemical; details: read-out: Percent Control
LTK = LTK (Homo sapiens, UniProt P29376); assay: biochemical; details: read-out: Percent Control
LATS1 = LATS1 (Homo sapiens, UniProt O95835); details: 1 µM; binder
EPHB6 = EPHB6 (Homo sapiens, UniProt O15197); details: 1 µM; binder
KIT-autoinhibited = KIT-autoinhibited (Homo sapiens, UniProt P10721); details: 1 µM; binder
MAP3K3 = MAP3K3 (Homo sapiens, UniProt Q99759); details: 1 µM; binder
KIT = KIT (Homo sapiens, UniProt P10721); details: 1 µM; binder
RIPK2 = RIPK2 (Homo sapiens, UniProt O43353); details: 1 µM; binder
FGFR3(G697C) = FGFR3(G697C) (Homo sapiens, UniProt P22607, G697C); details: 1 µM; binder
TXK = TXK (Homo sapiens, UniProt P42681); details: 1 µM; binder
CHEK1 = CHEK1 (Homo sapiens, UniProt O14757); details: 1 µM; binder
ANKK1 = ANKK1 (Homo sapiens, UniProt Q8NFD2); details: 1 µM; binder
WEE2 = WEE2 (Homo sapiens, UniProt P0C1S8); details: 1 µM; binder
ERK5 = ERK5 (Homo sapiens, UniProt Q13164); details: 1 µM; binder
PIK3CA(E545A) = PIK3CA(E545A) (Homo sapiens, UniProt P42336, E545A); details: 1 µM; binder
ACVR2B = ACVR2B (Homo sapiens, UniProt Q13705); details: 1 µM; binder
BRAF(V600E) = BRAF(V600E) (Homo sapiens, UniProt P15056, V600E); details: 1 µM; binder
MERTK = MERTK (Homo sapiens, UniProt Q12866); details: 1 µM; binder
STK35 = STK35 (Homo sapiens, UniProt Q8TDR2); details: 1 µM; binder
NEK3 = NEK3 (Homo sapiens, UniProt P51956); details: 1 µM; binder
[2] = molecular target: RPS6KA5(Kin.Dom.2-C-terminal) (Homo sapiens, UniProt O75582); details: 0.1 µM; binder
[3] = molecular target: RSK2(Kin.Dom.2-C-terminal) (Homo sapiens, UniProt P51812); details: 0.1 µM; binder
[4] = molecular target: RPS6KA5(Kin.Dom.1-N-terminal) (Homo sapiens, UniProt O75582); details: 0.1 µM; binder
[5] = molecular target: RSK4(Kin.Dom.2-C-terminal) (Homo sapiens, UniProt Q9UK32); details: 0.1 µM; binder

PFPK5(P. falciparum), sequence (P61075 whole entry): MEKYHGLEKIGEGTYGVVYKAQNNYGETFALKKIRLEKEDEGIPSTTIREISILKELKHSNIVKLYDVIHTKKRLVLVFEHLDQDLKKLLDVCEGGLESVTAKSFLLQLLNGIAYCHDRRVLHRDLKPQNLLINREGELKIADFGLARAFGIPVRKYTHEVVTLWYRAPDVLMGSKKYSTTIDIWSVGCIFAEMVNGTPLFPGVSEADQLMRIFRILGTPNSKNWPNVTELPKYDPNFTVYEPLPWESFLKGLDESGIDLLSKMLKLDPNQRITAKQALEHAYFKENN
RSK2(Kin.Dom.2-C-terminal), sequence (P51812 whole entry): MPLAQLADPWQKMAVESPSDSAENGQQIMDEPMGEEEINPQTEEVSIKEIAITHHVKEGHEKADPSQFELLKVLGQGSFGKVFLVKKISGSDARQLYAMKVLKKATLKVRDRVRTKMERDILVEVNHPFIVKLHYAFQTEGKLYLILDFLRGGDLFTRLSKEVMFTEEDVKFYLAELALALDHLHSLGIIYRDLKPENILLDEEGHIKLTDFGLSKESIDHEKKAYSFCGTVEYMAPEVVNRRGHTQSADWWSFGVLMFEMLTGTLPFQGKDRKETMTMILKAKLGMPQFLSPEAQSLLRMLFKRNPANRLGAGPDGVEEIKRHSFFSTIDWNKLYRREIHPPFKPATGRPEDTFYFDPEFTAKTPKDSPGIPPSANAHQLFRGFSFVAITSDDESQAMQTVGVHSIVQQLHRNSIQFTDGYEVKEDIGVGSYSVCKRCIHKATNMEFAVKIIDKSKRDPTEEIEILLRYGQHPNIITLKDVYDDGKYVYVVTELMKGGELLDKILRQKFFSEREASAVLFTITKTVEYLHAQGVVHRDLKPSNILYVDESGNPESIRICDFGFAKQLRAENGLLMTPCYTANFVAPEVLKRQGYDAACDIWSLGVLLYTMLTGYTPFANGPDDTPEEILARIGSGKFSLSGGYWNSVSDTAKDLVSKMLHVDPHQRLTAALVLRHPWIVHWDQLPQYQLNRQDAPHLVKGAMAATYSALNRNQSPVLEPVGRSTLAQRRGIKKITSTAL
LTK, sequence (P29376 whole entry): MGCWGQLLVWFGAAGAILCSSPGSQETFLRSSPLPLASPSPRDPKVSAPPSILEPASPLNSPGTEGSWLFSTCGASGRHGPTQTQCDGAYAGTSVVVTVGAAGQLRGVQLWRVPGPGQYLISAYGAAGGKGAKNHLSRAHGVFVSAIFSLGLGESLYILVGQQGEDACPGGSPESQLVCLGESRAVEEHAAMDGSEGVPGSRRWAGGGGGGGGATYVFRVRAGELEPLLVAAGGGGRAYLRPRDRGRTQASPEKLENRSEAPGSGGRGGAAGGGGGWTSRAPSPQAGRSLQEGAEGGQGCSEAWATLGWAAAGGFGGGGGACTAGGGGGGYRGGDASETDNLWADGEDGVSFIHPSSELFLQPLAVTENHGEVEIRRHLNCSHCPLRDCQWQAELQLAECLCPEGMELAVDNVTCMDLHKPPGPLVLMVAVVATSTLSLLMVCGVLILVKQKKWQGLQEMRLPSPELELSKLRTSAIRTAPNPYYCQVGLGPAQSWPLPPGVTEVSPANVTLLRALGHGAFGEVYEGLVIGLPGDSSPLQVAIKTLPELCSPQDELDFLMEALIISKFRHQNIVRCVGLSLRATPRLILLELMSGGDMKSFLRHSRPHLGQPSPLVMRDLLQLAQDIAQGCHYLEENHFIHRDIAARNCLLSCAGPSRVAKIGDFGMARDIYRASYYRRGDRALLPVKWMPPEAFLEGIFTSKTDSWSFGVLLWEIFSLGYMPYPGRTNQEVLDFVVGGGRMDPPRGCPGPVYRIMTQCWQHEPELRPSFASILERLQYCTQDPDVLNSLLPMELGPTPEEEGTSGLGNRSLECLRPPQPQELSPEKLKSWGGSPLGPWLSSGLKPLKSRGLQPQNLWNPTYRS
NEK3, sequence (P51956 whole entry): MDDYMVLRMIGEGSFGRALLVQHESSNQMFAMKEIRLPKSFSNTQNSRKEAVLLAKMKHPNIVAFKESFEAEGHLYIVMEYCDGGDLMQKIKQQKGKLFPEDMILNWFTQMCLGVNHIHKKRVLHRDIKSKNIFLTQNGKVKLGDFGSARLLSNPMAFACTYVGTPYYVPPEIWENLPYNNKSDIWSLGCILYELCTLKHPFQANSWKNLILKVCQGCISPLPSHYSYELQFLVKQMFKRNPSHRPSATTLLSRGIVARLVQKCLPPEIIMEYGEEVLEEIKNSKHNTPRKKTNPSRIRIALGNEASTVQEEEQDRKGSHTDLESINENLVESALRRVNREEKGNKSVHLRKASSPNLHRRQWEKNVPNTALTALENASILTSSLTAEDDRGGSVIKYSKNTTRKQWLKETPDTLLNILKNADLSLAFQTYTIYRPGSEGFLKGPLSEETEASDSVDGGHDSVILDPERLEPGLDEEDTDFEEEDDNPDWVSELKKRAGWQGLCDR
JAK1(JH2domain-pseudokinase), sequence (P23458 whole entry): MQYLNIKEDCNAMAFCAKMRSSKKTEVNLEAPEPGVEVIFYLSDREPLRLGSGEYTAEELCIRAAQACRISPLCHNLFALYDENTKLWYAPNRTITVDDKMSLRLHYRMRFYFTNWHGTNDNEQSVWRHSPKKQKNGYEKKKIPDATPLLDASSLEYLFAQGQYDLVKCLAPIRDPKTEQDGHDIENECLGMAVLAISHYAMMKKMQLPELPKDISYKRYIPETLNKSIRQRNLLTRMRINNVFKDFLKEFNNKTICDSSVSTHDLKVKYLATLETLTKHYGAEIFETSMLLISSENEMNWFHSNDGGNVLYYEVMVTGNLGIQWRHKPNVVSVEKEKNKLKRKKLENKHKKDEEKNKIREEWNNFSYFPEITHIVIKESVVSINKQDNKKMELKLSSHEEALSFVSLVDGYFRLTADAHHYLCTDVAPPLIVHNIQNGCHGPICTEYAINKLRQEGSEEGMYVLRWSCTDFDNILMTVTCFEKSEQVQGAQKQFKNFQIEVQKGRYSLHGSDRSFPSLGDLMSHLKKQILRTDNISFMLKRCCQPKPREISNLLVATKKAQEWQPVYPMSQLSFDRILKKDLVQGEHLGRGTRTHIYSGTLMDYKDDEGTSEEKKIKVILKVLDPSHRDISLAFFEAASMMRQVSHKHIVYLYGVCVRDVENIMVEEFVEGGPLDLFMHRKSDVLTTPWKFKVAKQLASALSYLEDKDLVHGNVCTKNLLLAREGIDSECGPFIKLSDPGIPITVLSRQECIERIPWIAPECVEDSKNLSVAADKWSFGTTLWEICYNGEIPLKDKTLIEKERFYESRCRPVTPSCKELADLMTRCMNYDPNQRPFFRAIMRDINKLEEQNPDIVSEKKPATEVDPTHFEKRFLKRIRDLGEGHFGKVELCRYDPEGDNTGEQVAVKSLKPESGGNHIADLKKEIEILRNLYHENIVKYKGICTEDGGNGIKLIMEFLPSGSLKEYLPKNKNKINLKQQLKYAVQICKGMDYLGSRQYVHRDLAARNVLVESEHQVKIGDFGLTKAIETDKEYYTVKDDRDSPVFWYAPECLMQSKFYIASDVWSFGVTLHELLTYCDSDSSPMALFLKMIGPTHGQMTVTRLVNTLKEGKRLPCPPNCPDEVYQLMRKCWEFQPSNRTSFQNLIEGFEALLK
MERTK, sequence (Q12866 whole entry): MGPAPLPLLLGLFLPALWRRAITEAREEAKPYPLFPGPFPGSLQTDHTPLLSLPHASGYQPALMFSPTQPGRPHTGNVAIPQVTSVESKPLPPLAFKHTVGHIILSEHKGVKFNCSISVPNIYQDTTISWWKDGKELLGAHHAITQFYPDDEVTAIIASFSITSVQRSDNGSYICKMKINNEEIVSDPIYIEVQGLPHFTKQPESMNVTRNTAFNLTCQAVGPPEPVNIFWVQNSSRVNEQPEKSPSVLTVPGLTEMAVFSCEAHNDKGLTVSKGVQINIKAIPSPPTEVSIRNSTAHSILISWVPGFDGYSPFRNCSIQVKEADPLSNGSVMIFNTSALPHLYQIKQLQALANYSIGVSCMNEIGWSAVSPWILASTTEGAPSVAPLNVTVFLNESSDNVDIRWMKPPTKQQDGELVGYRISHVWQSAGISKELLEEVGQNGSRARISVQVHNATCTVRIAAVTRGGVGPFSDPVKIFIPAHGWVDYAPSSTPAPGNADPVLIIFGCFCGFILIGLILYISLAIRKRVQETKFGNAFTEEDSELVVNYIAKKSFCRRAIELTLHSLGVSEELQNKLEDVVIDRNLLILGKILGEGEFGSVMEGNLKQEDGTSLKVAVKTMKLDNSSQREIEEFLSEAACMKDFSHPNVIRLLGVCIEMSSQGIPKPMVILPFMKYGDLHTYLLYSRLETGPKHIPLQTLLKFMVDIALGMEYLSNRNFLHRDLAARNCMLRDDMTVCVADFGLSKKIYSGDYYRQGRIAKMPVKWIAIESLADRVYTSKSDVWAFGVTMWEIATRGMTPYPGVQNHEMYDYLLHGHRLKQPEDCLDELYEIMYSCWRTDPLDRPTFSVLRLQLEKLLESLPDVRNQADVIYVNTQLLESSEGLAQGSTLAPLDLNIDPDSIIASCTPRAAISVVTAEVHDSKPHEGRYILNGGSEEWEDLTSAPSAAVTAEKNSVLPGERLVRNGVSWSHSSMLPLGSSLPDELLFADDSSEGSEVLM
TXK, sequence (P42681 whole entry): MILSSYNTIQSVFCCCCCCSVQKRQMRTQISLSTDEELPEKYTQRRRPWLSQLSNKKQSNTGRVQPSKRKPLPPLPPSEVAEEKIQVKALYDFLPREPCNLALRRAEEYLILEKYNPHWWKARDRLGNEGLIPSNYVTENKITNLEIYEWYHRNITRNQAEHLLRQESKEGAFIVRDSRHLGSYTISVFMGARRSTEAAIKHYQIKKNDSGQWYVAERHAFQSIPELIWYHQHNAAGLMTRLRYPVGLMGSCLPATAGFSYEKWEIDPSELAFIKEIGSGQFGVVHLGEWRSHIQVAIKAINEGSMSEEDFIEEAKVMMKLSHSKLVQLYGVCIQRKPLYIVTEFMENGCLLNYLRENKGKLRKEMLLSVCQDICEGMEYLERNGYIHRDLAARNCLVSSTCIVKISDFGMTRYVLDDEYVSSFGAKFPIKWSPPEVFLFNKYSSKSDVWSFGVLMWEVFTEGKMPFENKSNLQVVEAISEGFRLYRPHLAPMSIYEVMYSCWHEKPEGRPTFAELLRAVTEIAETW

## CNc1ncc2cc(-c3ccc(-c4cccc(C)n4)cc3Cl)c(=O)n(C[C@H]3OC[C@H](N)CO3)c2n1 [compound 6, G-5555]
[1]
  Percent Control: 92%
PFCDPK1 (P. falciparum)
  Percent Control: 0.4%
PFPK5(P. falciparum)
  Percent Control: 90%
CDK4-cyclinD1
  Percent Control: 100%
DYRK1B
  remaining activity at 0.1 µM: 61%
STK33
  remaining activity at 0.1 µM: 100%
LTK
  remaining activity at 0.1 µM: 28%
LATS1
  Percent Control: 41%
EPHB6
  Percent Control: 9%
KIT-autoinhibited
  Percent Control: 81%
MAP3K3
  Percent Control: 23%
KIT
  Percent Control: 100%
RIPK2
  Percent Control: 65%
FGFR3(G697C)
  Percent Control: 100%
TXK
  Percent Control: 100%
CHEK1
  Percent Control: 100%
ANKK1
  Percent Control: 87%
WEE2
  Percent Control: 100%
ERK5
  Percent Control: 52%
PIK3CA(E545A)
  Percent Control: 90%
ACVR2B
  Percent Control: 100%
BRAF(V600E)
  Percent Control: 93%
MERTK
  Percent Control: 100%
STK35
  Percent Control: 100%
NEK3
  Percent Control: 72%
[2]
  Percent Control: 100%
[3]
  Percent Control: 83%
[4]
  Percent Control: 100%
[5]
  Percent Control: 100%
